Patent US20230416329A1, “A PEPTIDE WITH DISULFIDE BONDS AND INHIBITORY ACTIVITY AGAINST SERINE PROTEASES, DERIVED HYBRID PEPTIDES THEREOF, AND USES THEREOF” (INSTITUTE OF MATERIA MEDICA , CHINESE ACADEMY OF MEDICAL …, priority 2020, published 2023)
Bridge positions count the residues as written; N and C are the ends. Peptide text beside a SMILES is read from it.

How the values were obtained:
trypsin = target: T1, trypsin (Bos taurus, UniProt P00760); assay: in vitro
T1 sequence (P00760 24-246): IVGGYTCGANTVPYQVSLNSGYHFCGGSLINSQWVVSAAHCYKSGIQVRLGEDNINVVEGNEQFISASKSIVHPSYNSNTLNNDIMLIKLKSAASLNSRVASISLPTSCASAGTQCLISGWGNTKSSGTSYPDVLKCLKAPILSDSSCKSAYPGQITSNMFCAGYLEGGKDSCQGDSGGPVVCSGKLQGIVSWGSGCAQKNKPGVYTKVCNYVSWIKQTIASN
Protocol: FIG. 17. […] At different time point, 25 μL aliquots was taken out, and 10% (v/v) TFA was added to terminate the reaction.
(§1) Mix by centrifugation at 8000 rpm for 30 seconds.
(§2) Arrange a certain volume of 0.05 μg/μL trypsin solution in another sterile EP. Incubate the EP tubes containing peptides and enzymes at 37° C. for 5 min, and separately add 6 μL of trypsin solution to each EP tube containing peptides and mix well. Start timing and extract 25 μL of reaction solution at 1.5, 3.0, 4.5, 6.0 and 9.0 min later, respectively. Add 3.75 μL of 10% TFA to terminate the reaction and mix well by centrifugation at 8000 rpm for 30 seconds.
as §2, with “and” for “and separately”, “9” for “6”, “6.0, 9.0, 15.0, 30.0,” for “6.0”, “60.0” for “9.0”
(§3) Referring to the experimental method in Example 5, in vitro stability of salmon Calcitonin analogs with oral administration activity to the enzymatic hydrolysis by trypsin, chymotrypsin and elastase were performed.
(§4) Referring to the experimental method in Example 5, in vitro stability of IL-17A inhibitory peptides towards the enzymatic hydrolysis by trypsin, chymotrypsin and elastase were performed.

chymotrypsin = chymotrypsin (Bos taurus, UniProt P00766); assay: in vitro
Protocol: FIG. 18. […] At different time point, 25 μL aliquots was taken out, and 10% (v/v) TFA was added to terminate the reaction.
as §1
as §2, with “μg/μL chymotrypsin” for “μg/μL trypsin”, “and” for “and separately”, “add 3” for “add 6”
as §2, with “chymotrypsin” for “trypsin”, “then” for “separately”, “4.5” for “6”, “6.0, 9.0, 15.0, 30.0,” for “6.0”, “60.0” for “9.0”
as §3, §4

[1] = target: porcine pancreatic elastase (Sus scrofa, UniProt P00772); assay: Elastase inhibitory activity of peptides (AAApNA hydrolysis; IC50, Ki, residual activity); format: biochemical; conditions: for IC50: elastase 0.5 μM, AAApNA 1 mM
Protocol: The inhibition constants of various synthetic active peptide inhibitors (molecular scaffolds) against seine proteases were measured. The substrates N-succinyl-Ala-Ala-Pro-Phe-p-nitroaniline (AAPFpNA), Nα—Benzoyl-L-arginine-4-nitroaniline hydrochloride (BApNA) and N-succinyl-[…] (AAApNA) are used in competitive binding reaction to determine the inhibitory activities against α-chymotrypsin, bovine trypsin, and porcine pancreatic elastase, respectively. Experiments for α-chymotrypsin and bovine trypsin inhibition were measured in 20 mM CaCl2, 50 mM Tris-HCl buffer (pH 7.8), and that for porcine elastase inhibition was measured in 50 mM Tris-HCl buffer (pH 8.0). The concentration of the peptide was measured using optical density (OD) at 280 nm. The Michaelis constant (Km) of the enzyme hydrolysis substrate is calculated from the initial rate of substrate hydrolysis at 405 nm. The absorbance value of the substrate was measured at 405 nm after complete hydrolysis. All data were processed using nonlinear regression.
• (1) Added a total 198 μL of reaction buffer (20 mM CaCl2, 50 mM Tris-HCl (pH 8.0)) into the 96 well plate, followed by preheating at 37° C. for 15 min. Then added 2 μL of different concentrations of substrates (pNA, dissolved in DMSO), and mixed by centrifugation at 500 rpm for 1 min. Finally, the plate was incubated at 37° C. for 30 min, and the absorbance value at 405 nm was measured. In the 200 μL of reaction system, the final concentrations of pNA were 0, 0.025, 0.05, 0.075, 0.1, 0.125, 0.15, 0.175, and 0.2 mM, respectively. Make three repetitions for each concentration and plot the OD405 m value with pNA concentration to obtain the standard curve. • (2) Added a total 190 μL of reaction buffer (20 mM CaCl2, 50 mM Tris-HCl (pH 8.0)) and 8 μL of 4.375 μM elastase into the 96 well plate, followed by preheating at 37° C. for 5 min. Then added 2 μL of different concentrations of substrates (AAApNA, dissolved in DMSO), and mixed by centrifugation at 500 rpm for 1 min. Finally, the plate was incubated at 37° C. for 30 min, and the absorbance value at 405 nm was measured. In the 200 μL of reaction system, the final concentrations of AAApNA were 0, 0.125, 0.166, 0.2, 0.25, 0.33, 0.6, 0.75, and 1.25 mM, respectively. Make three repetitions for each concentration and plot the OD405 nm value with time to obtain the corresponding curve. Divide the slope of the curve by the slope of the standard curve and the enzyme concentration to obtain the initial velocity V0 (mM/(min*mM protein). Plot the initial velocity V0 with the concentration of substrate AAApNA using Prism software, and the Michaelis constant Km value of elastase hydrolyzing AAApNA was obtained.
• (1) Added a total 190 μL of different concentrations of peptides (ECs) against elastase and reaction buffer (20 mM CaCl2, 50 mM Tris-HCl buffer (pH 8.0)) into the pre-cold 96 well plate, followed by preheating at 37° C. for 5 min and centrifugated at 500 rpm for 1 min and allowed to stand for 4 minutes. Then added 8 μL of 12.5 μM elastase and incubated at 37° C. for 10 min and centrifugated at 500 rpm for 1 min and allowed to stand for 9 minutes. Finally, added 2 μL of 100 mM AAApNA, and mixed by centrifugation at 500 rpm for 1 min. The plate was incubated at 37° C. for 60 min, and the absorbance value at 405 nm was measured. Three repetitions were made, and only reaction buffer and substrate were added in the blank control as the minimum absorption value (Min OD405 nm); Only reaction buffer, enzyme and substrate were added in the negative control as the maximum absorption value (Max OD405 nm). • (2) In the 200 μL of reaction system, the final concentrations of elastase and AAApNA were 0.5 μM and 1 mM, respectively. • (3) Data statistics
Residual activity of enzyme (%)=(1−(Max OD405 nm−Sample OD405 nm)/(Max OD405 nm−Min OD405 nm))*100 […]

[2] = isolated enzyme trypsin, pH 7.8
[3] = isolated enzyme chymotrypsin, pH 7.8, Remaining peak area (%)/chymotrypsin

Chain of porcine pancreatic elastase (P00772 27-266): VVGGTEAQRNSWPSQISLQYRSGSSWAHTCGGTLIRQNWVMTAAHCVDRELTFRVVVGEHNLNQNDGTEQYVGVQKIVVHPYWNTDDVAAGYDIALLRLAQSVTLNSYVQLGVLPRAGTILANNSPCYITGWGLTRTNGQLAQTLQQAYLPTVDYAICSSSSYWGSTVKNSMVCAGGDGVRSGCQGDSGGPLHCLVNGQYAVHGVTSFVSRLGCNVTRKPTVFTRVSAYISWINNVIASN

With `CC[C@H](C)[C@@H]1NC(=O)[C@H](CO)NC(=O)[C@H](Cc2ccc(O)cc2)NC(=O)[C@H]([C@@H](C)O)NC(=O)[C@@H](NC(=O)[C@H](Cc2ccccc2)NC(=O)CNC(=O)[C@@H]2CCCN2C(=O)[C@@H](NC(=O)CNC(=O)[C@H](CO)NC(=O)CNC(=O)[C@@H](NC(=O)[C@H](CC(N)=O)NC(=O)[C@@H](NC(=O)[C@H](CCCNC(=N)N)NC(=O)[C@@H]2CCCN2C(=O)[C@H](Cc2ccc(O)cc2)NC(=O)[C@@H](NC(=O)[C@H](CCC(N)=O)NC(=O)[C@H](CC(C)C)NC(=O)[C@H](CCCCN)NC(=O)[C@H](Cc2c[nH]cn2)NC(=O)[C@H](C)NC(=O)[C@H](CCC(=O)O)NC(=O)[C@H](CCC(N)=O)NC(=O)[C@H](CO)NC(=O)[C@H](CC(C)C)NC(=O)[C@H](CCCCN)NC(=O)CNC(=O)[C@H](CC(C)C)NC(=O)CNC(=O)[C@@H]2CSSC[C@H](N)C(=O)N[C@@H](CO)C(=O)N[C@@H](CC(N)=O)C(=O)N[C@@H](CC(C)C)C(=O)N[C@@H](CO)C(=O)N[C@@H]([C@@H](C)O)C(=O)N2)[C@@H](C)O)[C@@H](C)O)[C@@H](C)O)[C@@H](C)O)CSSC[C@@H](C(=O)N[C@@H](Cc2ccc(O)cc2)C(=O)NCC(=O)O)NC(=O)[C@H](CCC(N)=O)NC(=O)[C@@H]2CCCN2C(=O)[C@@H]2CCCN2C1=O` [Cal-CH] the “Remaining peak area (%)/Trypsin” value (trypsin; 0 h) was 100.0 ± 0.0%, the remaining at 0.025 h, 60 μM (trypsin; [2]) was 13.4 ± 2.3% and the remaining at 0.05 h, 60 μM (trypsin; [2]) was 0%. The remaining at 0.075 h, 60 μM (trypsin; [2]) was 0%, the remaining at 0.1 h, 60 μM (trypsin; [2]) was 0% and the remaining at 0.15 h, 60 μM (trypsin; [2]) was 0%. The “stability towards chymotrypsin hydrolysis (in words)” value (chymotrypsin) was “resistant to the corresponding protease degradation”, the “Remaining peak area (%)/chymotrypsin” value (chymotrypsin; 0 h) was 100.0 ± 0.0% and the remaining at 0.025 h, 60 μM (chymotrypsin; [3]) was 89.3 ± 2.9%. It also gave a remaining at 0.05 h, 60 μM (chymotrypsin; [3]) of 90.9 ± 4.7%, a remaining at 0.075 h, 60 μM (chymotrypsin; [3]) of 83.8 ± 0.4% and a remaining at 0.1 h, 60 μM (chymotrypsin; [3]) of 82.2 ± 4.1%. It also gave a remaining at 0.15 h, 60 μM (chymotrypsin; [3]) of 52.4%, a remaining at 0.25 h, 60 μM (chymotrypsin; [3]) of 51.8 ± 0.4% and a remaining at 0.5 h, 60 μM (chymotrypsin; [3]) of 51.2 ± 1.8%. For the same compound, the remaining at 1 h, 60 μM (chymotrypsin; [3]) was 24.6 ± 0.5%.

For `CC[C@H](C)[C@@H]1NC(=O)[C@H](CO)NC(=O)[C@H](C)NC(=O)[C@H]([C@@H](C)O)NC(=O)[C@@H](NC(=O)[C@@H](N)CC(C)C)CSSC[C@@H](C(=O)N[C@@H](Cc2ccc(O)cc2)C(=O)O)NC(=O)[C@H](CCC(N)=O)NC(=O)[C@@H]2CCCN2C(=O)[C@@H]2CCCN2C1=O` [EC1] (H-LCTASIPPQCY-OH; disulfide 2-10; C-terminus assumed), the “inhibitory activity against elastase (in words)” value [1] was “better inhibitory activity against Elastase” and the Ki ([1]; read-out: Ki) was 0.33 µM.

`CC[C@H](C)[C@@H]1NC(=O)[C@H](CO)NC(=O)[C@H](C)NC(=O)[C@H]([C@@H](C)O)NC(=O)[C@H](C)NC(=O)[C@H](CC(C)C)NC(=O)CNC(=O)[C@@H](N)CSSC[C@@H](C(=O)N[C@@H](Cc2ccc(O)cc2)C(=O)O)NC(=O)[C@H](CCC(N)=O)NC(=O)[C@@H]2CCCN2C(=O)[C@@H]2CCCN2C1=O` [EC3] (H-CGLATASIPPQCY-OH; disulfide 1-12; N-terminus and C-terminus assumed) showed an IC50 [1] of over 50 µM.

With `CC[C@H](C)[C@@H]1NC(=O)[C@H](CO)NC(=O)[C@H](C)NC(=O)[C@H]([C@@H](C)O)NC(=O)CNC(=O)[C@H](CC(C)C)NC(=O)CNC(=O)[C@@H](N)CSSC[C@@H](C(=O)N[C@@H](Cc2ccc(O)cc2)C(=O)O)NC(=O)[C@H](CCC(N)=O)NC(=O)[C@@H]2CCCN2C(=O)[C@@H]2CCCN2C1=O` [EC4] (H-CGLGTASIPPQCY-OH; disulfide 1-12) the IC50 [1] was over 50 µM.

`CC[C@H](C)[C@@H]1NC(=O)[C@H](CO)NC(=O)[C@H](C)NC(=O)[C@H]([C@@H](C)O)NC(=O)[C@H](C)NC(=O)[C@H](CC(C)C)NC(=O)[C@@H](N)CSSC[C@@H](C(=O)N[C@@H](Cc2ccc(O)cc2)C(=O)O)NC(=O)[C@H](CCC(N)=O)NC(=O)[C@@H]2CCCN2C(=O)[C@@H]2CCCN2C1=O` [EC5] (H-CLATASIPPQCY-OH; disulfide 1-11; N-terminus and C-terminus assumed) gave an IC50 [1] of over 50 µM.

In the case of `CC[C@H](C)[C@@H]1NC(=O)[C@@H]2CCCN2C(=O)[C@@H]2CCCN2C(=O)[C@H]([C@@H](C)CC)NC(=O)[C@H](CO)NC(=O)[C@H](C)NC(=O)[C@H]([C@@H](C)O)NC(=O)[C@H](C)NC(=O)[C@H](CC(C)C)NC(=O)CNC(=O)[C@@H](N)CSSC[C@@H](C(=O)N[C@@H](CCC(N)=O)C(=O)O)NC1=O` [EC6] (H-CGLATASIPPICQ-OH; disulfide 1-12; N-terminus and C-terminus assumed), the IC50 [1] is reported as over 50 µM.

With `CC[C@H](C)[C@@H]1NC(=O)[C@@H]2CCCN2C(=O)[C@@H]2CCCN2C(=O)[C@H]([C@@H](C)CC)NC(=O)[C@H](CO)NC(=O)[C@H](CC(C)C)NC(=O)[C@H]([C@@H](C)O)NC(=O)[C@H](C)NC(=O)[C@H](CC(C)C)NC(=O)CNC(=O)[C@@H](N)CSSC[C@@H](C(=O)N[C@@H](CCC(N)=O)C(=O)O)NC1=O` [EC7] (H-CGLATLSIPPICQ-OH; disulfide 1-12; N-terminus and C-terminus assumed) the “inhibitory activity against elastase (in words)” value [1] was “weaker inhibitory activity”.
